Patent publication US11219625B2, “Inhibitors of N-linked glycosylation and methods using same” (YALE UNIVERSITY, priority 2015, dated 2022)

Experiments:
N-linked glycosylation = assay: D54-ERLucT cell based luciferase assay for inhibition of N-linked glycosylation; settings: D54-ERLucT cells, luciferase activation
Source text: (§1) The HTS approach using the bioluminescent N-linked glycosylation reporter (CCR 2011) in D54-ERLucT and D54-LucT cells has been previously described (Bennett, et al., Transl Oncol 2013, 6, 382-391). Briefly, the primary cell-based screen detects site occupancy of NLG sequons using a modified luciferase protein translated into the ER. […] The methodology for the primary (D54-ERlucT), secondary (D54-LucT), and tertiary (luciferase inhibition) screens as well and toxicity assays with CelltitreGlo are deposited in Pubchem (AID 588693).
The primary screen was developed in the D54 glioma cell line using a modified P. pyralis luciferase gene (ER-LucT) that is ER translated and glycosylated at three N-linked glycosylation consensus sequences. Glycosylation of the reporter inactivates luciferase enzymatic activity providing a robust methodology to detect inhibition of this process. D54 cells expressing a non-ER translated luciferase (LucT) insensitive to inhibition of N-linked glycoysation were used as a secondary screen for false positives. The primary screen was performed in duplicate and values were normalized to the average of positive control wells (Tunicamycin) minus averaged neutral vehicle treated wells per run. Compounds with replicate activity greater than three standard deviations above the mean average of control wells were selected for further study. A subset of 1,845 compounds met this criterion, and were advanced to simultaneous retesting in both the primary screen and a secondary (false positive) cell-based screen. […] Compounds were further triaged from consideration by consulting the Pubchem bioassay database and deprioritizing compounds showing a promiscuity rate higher than 5% across assays or by removing PAINS scaffolds (Baell, et al., J Med Chem 2010, 53, 2719-2740). Remaining compounds were assessed by medicinal chemistry review to score synthetic tractability and known issues with instability, poor solubility, or toxicity. This analysis yielded 39 compounds that were tested in a cell-free assay to detect luciferase inhibitors (Auld, et al., Proc Natl Acad Sci USA 2010, 107, 4878-4883) and by western blot analysis to detect gel mobility changes of the luciferase reporter, consistent with inhibition of N-linked glycosylation. This approach identified one aminobenzamidosulfonamide compound that blocked N-linked glycosylation.
(§2) To better understand the connection between structure and activity, analogs were prepared and tested in the D54-ERLucT cell based assay for inhibition of N-linked glycosylation (FIG. 1B). The assay was used to estimate and compare AC40 values among analogs and to guide the design of improved compounds that inhibited N-linked glycosylation. This effort generated 36 unique compounds with modifications to the amine component of the sulfonamide functionality (red), the pyrrolidine moiety (blue) or the methylaminothiazole group (green). Generally, incorporation of larger sulfonamides (i.e., larger secondary amines appended to the sulphone) was not well tolerated, resulting in erosion of potency (7 analogs). However, steric interactions could be mitigated by the introduction of a hydrogen bond accepting oxygen in a larger cyclic amine. Thus, morpholine was determined to be an acceptable surrogate for the dimethylamine component of the sulfonamide (FIGS. 1A-1D). The pyrrolidine group (blue) was replaced with various alkyl, cycloalkyl, and amine groups (7 compounds). The aminothiazole moiety was derivatized most extensively of all three regions (green highlighted area, 22 analogs). […] Analogs with the highest potency in the luciferase assay were retested with western blot analysis to insure that measurements of luciferase activation corresponded to loss of N-linked glycosylation.

[1] = Celltiter Glo viability assay, HepG2; type: cell-based; settings: human, HepG2 cells; HEPG2, 72 h of compound exposure; read-out: Cytotoxicity Assay Mean EC50
Source text: as §1, §2

HepG2 cells = assay: Celltiter Glo viability assay, HepG2; type: cell-based; settings: HEPG2 EC50 over NLG AC40
Source text: as §1, §2

[2] = Celltiter Glo viability assay, HEK293; type: cell-based; settings: human, HEK293 cells; HEK293, 72 h of compound exposure; read-out: Cytotoxicity Assay Mean EC50
Source text: as §1, §2

HEK293 cells = assay: Celltiter Glo viability assay, HEK293; type: cell-based; settings: HEK293 EC50 over NLG AC40
Source text: as §1, §2

Row | SMILES | NLG Inhibition ASSAY Potency Mean AC40 (N-linked glycosylation) | NLG Inhibition max act, % (N-linked glycosylation) | EC50 at 72 h [1] | Selectivity (EC50/AC40) (HepG2 cells) | EC50 at 72 h [2] | Selectivity (EC50/AC40) (HEK293 cells)
1 | COc1ccc2nc(NC(=O)c3cc(S(=O)(=O)N(C)C)ccc3N3CCCC3)sc2c1 [Entry 9, 5-(dimethylsulfamoyl)-N-(6-methoxy-1,3-benzothiazol-2-yl)-2-pyrrolidin-1-ylbenzamide] | 13.1 µM | 85.7% | > 30 µM | >2.3 | > 30 µM | >2.3
2 | CN(C)S(=O)(=O)c1ccc(N2CCCC2)c(C(=O)Nc2cccnc2)c1 [Entry 10, 5-(dimethylsulfamoyl)-N-pyridin-3-yl-2-pyrrolidin-1-ylbenzamide] |  | 48.4% | > 30 µM |  | > 30 µM | 
3 | CN(C)S(=O)(=O)c1ccc(N2CCCC2)c(C(=O)Nc2ccncc2)c1 [Entry 11, 5-(dimethylsulfamoyl)-N-pyridin-4-yl-2-pyrrolidin-1-ylbenzamide] |  | 25% | > 30 µM |  | > 30 µM | 
4 | CN(C)S(=O)(=O)c1ccc(N2CCCC2)c(C(=O)Nc2ccccc2)c1 [Entry 12, 5-(dimethylsulfamoyl)-N-phenyl-2-pyrrolidin-1-ylbenzamide] | 1.1 µM | 183.0% | > 30 µM | >27.8 | > 30 µM | >27.8
5 | Cc1ccccc1NC(=O)c1cc(S(=O)(=O)N(C)C)ccc1N1CCCC1 [Entry 13, 5-(dimethylsulfamoyl)-N-(2-methylphenyl)-2-pyrrolidin-1-ylbenzamide] |  | 10.7% | > 30 µM |  | > 30 µM | 
6 | Cc1ccc(NC(=O)c2cc(S(=O)(=O)N(C)C)ccc2N2CCCC2)cc1 [Entry 14, 5-(dimethylsulfamoyl)-N-(4-methylphenyl)-2-pyrrolidin-1-ylbenzamide] | 1.2 µM | 305.0% | > 30 µM | >25.0 | > 30 µM | >25.0
7 | COc1ccccc1NC(=O)c1cc(S(=O)(=O)N(C)C)ccc1N1CCCC1 [Entry 15, 5-(dimethylsulfamoyl)-N-(2-methoxyphenyl)-2-pyrrolidin-1-ylbenzamide] |  | 30.1% | > 30 µM |  | > 30 µM | 
8 | COc1ccc(NC(=O)c2cc(S(=O)(=O)N(C)C)ccc2N2CCCC2)cc1 [Entry 16, 5-(dimethylsulfamoyl)-N-(4-methoxyphenyl)-2-pyrrolidin-1-ylbenzamide] | 10.3 µM | 79.9% | > 30 µM | >2.9 | > 30 µM | >2.9
9 | CN(C)S(=O)(=O)c1ccc(N2CCCC2)c(C(=O)Nc2ccccc2F)c1 [Entry 17, 5-(dimethylsulfamoyl)-N-(2-fluorophenyl)-2-pyrrolidin-1-ylbenzamide] |  |  | > 30 µM |  | > 30 µM | 
10 | CN(C)S(=O)(=O)c1ccc(N2CCCC2)c(C(=O)Nc2cccc(F)c2)c1 [Entry 18, 5-(dimethylsulfamoyl)-N-(3-fluorophenyl)-2-pyrrolidin-1-ylbenzamide] | 2.6 µM | 107.7% | > 30 µM | >11.5 | > 30 µM | >11.5
11 | CN(C)S(=O)(=O)c1ccc(N2CCCC2)c(C(=O)Nc2ccccc2Cl)c1 [Entry 19, 5-(dimethylsulfamoyl)-N-(2-chlorophenyl)-2-pyrrolidin-1-ylbenzamide] |  | 24.7% | > 30 µM |  | > 30 µM | 
12 | CN(C)S(=O)(=O)c1ccc(N2CCCC2)c(C(=O)Nc2ccc(Br)cc2)c1 [Entry 20, 5-(dimethylsulfamoyl)-N-(4-bromophenyl)-2-pyrrolidin-1-ylbenzamide] |  | 32% | > 30 µM |  | > 30 µM | 
13 | CN(C)S(=O)(=O)c1ccc(N2CCCC2)c(C(=O)N2CCOCC2)c1 [Entry 21, N,N-Dimethyl-3-(morpholine-4-carbonyl)-4-(pyrrolidin-1-yl)benzenesulfonamide] |  | 23.6% | > 30 µM |  | > 30 µM | 
14 | CN(C)S(=O)(=O)c1ccc(N2CCCC2)c(C(=O)NC2CCCCC2)c1 [Entry 22, N-cyclohexyl-5-(dimethylsulfamoyl)-2-pyrrolidin-1-ylbenzamide] |  |  | > 30 µM |  | > 30 µM | 
15 | CN(C)C(=O)c1cc(S(=O)(=O)N(C)C)ccc1N1CCCC1 [Entry 23, 5-(dimethylsulfamoyl)-N,N-dimethyl-2-pyrrolidin-1-ylbenzamide] |  | 32.1% | > 30 µM |  | > 30 µM | 
